# Measured values taken from patent US8143301B2, “Hepatitis C virus inhibitors” (Bristol Myers Squibb Company, priority 2009, dated 2012).
# Like-named read-outs stand apart in the source and are kept apart here.
# System: HCV 1b genotype
# Test: HCV Replicon assay, 1b genotype
# Type: cell-based
# Conditions: Hepatitis C virus, HCV 1b genotype replicon
# Description: An HCV Replicon assay was utilized in the present disclosure, and was prepared, conducted and validated as described in commonly owned PCT/US2006/022197 and in O'Boyle et. al. Antimicrob Agents Chemother. 2005 April; 49(4):1346-53. Assay methods incorporating luciferase reporters have also been used as described (Apath.com).
# HCV-neo replicon cells and replicon cells containing mutations in the NS5A region were used to test the currently described family of compounds. The compounds were determined to have more than 10-fold less inhibitory activity on cells containing mutations than wild-type cells. Thus, the compounds of the present disclosure can be effective in inhibiting the function of the HCV NS5A protein and are understood to be as effective in combinations as previously described in application PCT/US2006/022197 and commonly owned WO/O4014852. Further, the compounds of the present disclosure can be effective against the HCV 1b genotype. It should also be understood that the compounds of the present disclosure can inhibit multiple genotypes of HCV. […] In one embodiment, compounds of the present disclosure are inhibitory versus 1a, 1b, 2a, 2b, 3a, 4a, and 5a genotypes.
smiles,measurement,setting,value
"COC(=O)N[C@H](C(=O)N1CCCN1c1nc(-c2ccc(-c3ccc(-c4c[nH]c(N5CCCN5C(=O)[C@@H](NC(=O)OC)C(C)C)n4)cc3)cc2)c[nH]1)C(C)C [Example 11, methyl ((1S)-1-((2-(4-(4′-(2-(2-((2S)-2-((methoxycarbonyl)amino)-3-methylbutanoyl)-1-pyrazolidinyl)-1H-imidazol-4-yl)-4-biphenylyl)-1H-imidazol-2-yl)-1-pyrazolidinyl)carbonyl)-2-methylpropyl)carbamate]",EC50,read-out: 1b EC50,< 13.7 nM
same,EC50,read-out: 1b EC50 in Range,1 to 99 nM
"COC(=O)N[C@@H](C(=O)N1CCCN1c1nc(-c2ccc(-c3ccc(-c4c[nH]c(N5CCCN5C(=O)[C@H](NC(=O)OC)c5ccccc5)n4)cc3)cc2)c[nH]1)c1ccccc1 [Example 12, dimethyl (4,4′-biphenyldiylbis(1H-imidazole-4,2-diyl-2,1-pyrazolidinediyl((1R)-2-oxo-1-phenyl-2,1-ethanediyl)))biscarbamate]",EC50,read-out: 1b EC50 in Range,0.101 to 0.999 nM
"O=C(OCc1ccccc1)N1CCCN1c1nc(-c2ccc(-c3ccc(-c4c[nH]c(N5CCCN5C(=O)OCc5ccccc5)n4)cc3)cc2)c[nH]1 [Example 10, dibenzyl 2,2′-(4,4′-biphenyldiylbis(1H-imidazole-4,2-diyl))di(1-pyrazolidinecarboxylate)]",EC50,read-out: 1b EC50 in Range,1 to 99 nM
"COC(=O)N[C@H](C(=O)N1[C@H](c2ncc(-c3ccc(-c4ccc(-c5cnc([C@@H]6CCN(C)N6C(=O)[C@@H](NC(=O)OC)C(C)C)[nH]5)cc4)cc3)[nH]2)CCN1C)C(C)C [Example 1, methyl ((1S)-1-(((5S)-5-(5-(4′-(2-((3S)-2-((2S)-2-((methoxycarbonyl)amino)-3-methylbutanoyl)-1-methyl-3-pyrazolidinyl)-1H-imidazol-5-yl)-4-biphenylyl)-1H-imidazol-2-yl)-2-methyl-1-pyrazolidinyl)carbonyl)-2-methylpropyl)carbamate]",EC50,read-out: 1b EC50,0.003 nM
"COC(=O)N[C@H](C(=O)N1[C@H](c2ncc(-c3ccc(C#Cc4ccc(-c5cnc([C@@H]6CCN(C)N6C(=O)[C@@H](NC(=O)OC)C(C)C)[nH]5)cc4)cc3)[nH]2)CCN1C)C(C)C [Example 8, methyl ((1S)-1-(((5S)-5-(5-(4-((4-(2-((3S)-2-((2S)-2-((methoxycarbonyl)amino)-3-methylbutanoyl)-1-methyl-3-pyrazolidinyl)-1H-imidazol-5-yl)phenyl)ethynyl)phenyl)-1H-imidazol-2-yl)-2-methyl-1-pyrazolidinyl)carbonyl)-2-methylpropyl)carbamate]",EC50,read-out: 1b EC50,0.2 nM
same,EC50,read-out: 1b EC50 in Range,0.101 to 0.999 nM
